We go through six molecules from patent US20020115689A1, “Combination therapy for treating neurodegenerative disease” (priority 1999, published 2002).

In this test the test system is COX-1 and COX-2. The test can be described thus: human whole blood assay (Chan, et al., JPET 290:551-560, 1999) for COX-1 and COX-2 inhibition. Type of test: cell-based. The following applies: approximate COX-2 selectivity ratio = IC50 for inhibition of COX-1 divided by IC50 for inhibition of COX-2, human whole blood assay. The source says: The ability of a compound to inhibit COX-1 and/or COX-2 may be characterized by reference to a wide variety of assays. […] Moreover, for purposes of this patent application a COX-2 selectivity ratio is defined by the IC50 for the inhibition of COX-1 divided by the IC50 for the inhibition of COX-2 as measured by the Chan, et al., human whole blood assay.
On to `Cc1ccc(-c2cc(C(F)(F)F)nn2-c2ccc(S(N)(=O)=O)cc2)cc1` [Celecoxib], for which the “COX-1/COX-2 ratio of the IC50” value is recorded as 6.5.

As for `Cc1ccc(-c2ncc(Cl)cc2-c2ccc(S(C)(=O)=O)cc2)cn1` [Compound 13, 5-chloro-3-(4-(methylsulfonyl)phenyl)-2-(2-methyl-5-pyridinyl)pyridine], the “COX-1/COX-2 ratio of the IC50” value is recorded as 80.

With `COc1ccc2c(c1)c(CC(=O)O)c(C)n2C(=O)c1ccc(Cl)cc1` [Indomethacin], the “COX-1/COX-2 ratio of the IC50” value is recorded as 0.4.

Turning to `Cc1cnc(NC(=O)C2=C(O)c3ccccc3S(=O)(=O)N2C)s1` [Meloxicam], the “COX-1/COX-2 ratio of the IC50” value is listed as 2.

Consider `CCC(=O)NS(=O)(=O)c1ccc(-c2c(-c3ccccc3)noc2C)cc1` [Pericoxib, N-[[4-(5-methyl-3-phenylisoxazol-4-yl)phenyl]sulfonyl]propanamide], for which the “COX-1/COX-2 ratio of the IC50” value is listed as greater than 100.

Consider `CS(=O)(=O)c1ccc(C2=C(c3ccccc3)C(=O)OC2)cc1` [Rofecoxib, 3-phenyl-4-(4-(methylsulfonyl)phenyl)-2-(5H)-furanone], for which the “COX-1/COX-2 ratio of the IC50” value was 35.
